# In ChEMBL document CHEMBL5661980, “Discovery of OSI-906: a selective and orally efficacious dual inhibitor of the IGF-1 receptor and insulin receptor” (Future Med Chem, 2009):
# Several values for one entry are separate records, joined by “and”; a condition that tells them apart may be missing. Equal entries are not always repeated.
# Tests used:
# [1] = Plasma concentration in athymic nu/nu CD-1 mouse at 100 mg/kg, po measured at 1 hr by HPLC - UV analysis; type: ADME, organism-based
# [2] = Plasma concentration in athymic nu/nu CD-1 mouse at 100 mg/kg, po measured at 4 hrs by HPLC - UV analysis; type: ADME, organism-based
# [3] = Plasma concentration in athymic nu/nu CD-1 mouse at 100 mg/kg, po measured at 8 hrs by HPLC - UV analysis; type: ADME, organism-based
# [4] = Plasma concentration in athymic nu/nu CD-1 mouse at 100 mg/kg, po measured at 16 hrs by HPLC - UV analysis; type: ADME, organism-based
# [5] = biological target: T1, Insulin-like growth factor 1 receptor (Homo sapiens, UniProt P08069); assay: Inhibition of human recombinant IGF-1 receptor expressed in mouse 3T3 cells treated for 15 mins by ELISA analysis; type: cell-based
# [6] = Cmax in CD-1 mouse at 50 mg/kg, po measured after 1 to 24 hrs by HPLC-MS/MS analysis; type: ADME, organism-based; settings: in vivo, time 1-24 hrs
# [7] = AUC (0 to infinity) in CD-1 mouse at 50 mg/kg, po measured after 1 to 24 hrs by HPLC-MS/MS analysis; type: ADME, organism-based; settings: in vivo, time 1-24 hrs
# [8] = Oral bioavailability in CD-1 mouse administered at 50 mg/kg measured after 1 to 24 hrs by HPLC-MS/MS analysis; type: ADME, organism-based; settings: in vivo, time 1-24 hrs
# Cytochrome P450 3A4 = Cytochrome P450 3A4 (Homo sapiens, UniProt P08684); assay: Inhibition of CYP3A4 (unknown origin) using luciferin as substrate in presence of NADPH generating system incubated for 20 mins by luminescent method; type: ADME
# [9] = Elimination half life in CD-1 mouse at 5 mg/kg, iv measured after 1 to 24 hrs by HPLC-MS/MS analysis; type: ADME, organism-based; settings: in vivo, time 1-24 hrs, read-out: beta t1/2 (converted)
# [10] = Volume of distribution at steady state in CD-1 mouse at 5 mg/kg, iv measured after 1 to 24 hrs by HPLC-MS/MS analysis; type: ADME, organism-based; settings: in vivo, time 1-24 hrs, read-out: Vdss
# [11] = Clearance in CD-1 mouse at 5 mg/kg, iv measured after 1 to 24 hrs by HPLC-MS/MS analysis; type: ADME, organism-based; settings: in vivo, time 1-24 hrs
# [12] = Elimination half life in CD-1 mouse at 50 mg/kg, po measured after 1 to 24 hrs by HPLC-MS/MS analysis; type: ADME, organism-based; settings: in vivo, time 1-24 hrs, read-out: beta t1/2 (converted)
# [13] = biological target: T1, Insulin-like growth factor 1 receptor; assay: Inhibition of human recombinant IGF-1 receptor in presence of ATP by ELISA analysis
# [14] = Microsomal stability in rat liver microsomes assessed as extraction ratio in presence of NADPH for 0 to 40 mins by LC-MS/MS analysis; type: ADME, Microsome; settings: time 0-40 min, read-out: ERH
# [15] = Microsomal stability in dog liver microsomes assessed as extraction ratio in presence of NADPH for 0 to 40 mins by LC-MS/MS analysis; type: ADME, Canis lupus familiaris, Microsome; settings: time 0-40 min, read-out: ERH
# [16] = Plasma concentration in CD-1 mouse at 25 mg/kg, po measured after 24 hrs by HPLC-MS/MS analysis; type: ADME, organism-based
# [17] = Cmax in Sprague-Dawley rat at 20 mg/kg, po measured after 1 to 24 hrs by HPLC-MS/MS analysis; type: ADME, organism-based; settings: in vivo, time 1-24 hrs
# [18] = Plasma concentration in Sprague-Dawley rat at 20 mg/kg, po measured after 24 hrs by HPLC-MS/MS analysis; type: ADME, organism-based
# [19] = Elimination half life in Sprague-Dawley rat at 20 mg/kg, po measured after 1 to 24 hrs by HPLC-MS/MS analysis; type: ADME, organism-based; settings: in vivo, time 1-24 hrs, read-out: beta t1/2 (converted)
# [20] = AUC (0 to infinity) in Sprague-Dawley rat at 20 mg/kg, po measured after 1 to 24 hrs by HPLC-MS/MS analysis; type: ADME, organism-based; settings: in vivo, time 1-24 hrs
# [21] = Oral bioavailability in Sprague-Dawley rat administered at 20 mg/kg measured after 1 to 24 hrs by HPLC-MS/MS analysis; type: ADME, organism-based; settings: in vivo, time 1-24 hrs
# [22] = Elimination half life in Sprague-Dawley rat at 5 mg/kg, iv measured after 1 to 24 hrs by HPLC-MS/MS analysis; type: ADME, organism-based; settings: in vivo, time 1-24 hrs, read-out: beta t1/2 (converted)
# [23] = Volume of distribution at steady state in Sprague-Dawley rat at 5 mg/kg, iv measured after 1 to 24 hrs by HPLC-MS/MS analysis; type: ADME, organism-based; settings: in vivo, time 1-24 hrs, read-out: Vdss
# [24] = Clearance in Sprague-Dawley rat at 5 mg/kg, iv measured after 1 to 24 hrs by HPLC-MS/MS analysis; type: ADME, organism-based; settings: in vivo, time 1-24 hrs
# [25] = Cmax in CD-1 mouse at 25 mg/kg, po measured after 1 to 24 hrs by HPLC-MS/MS analysis; type: ADME, organism-based; settings: in vivo, time 1-24 hrs
# [26] = Elimination half life in CD-1 mouse at 25 mg/kg, po measured after 1 to 24 hrs by HPLC-MS/MS analysis; type: ADME, organism-based; settings: in vivo, time 1-24 hrs, read-out: beta t1/2 (converted)
# [27] = AUC (0 to infinity) in CD-1 mouse at 25 mg/kg, po measured after 1 to 24 hrs by HPLC-MS/MS analysis; type: ADME, organism-based; settings: in vivo, time 1-24 hrs
# [28] = Oral bioavailability in CD-1 mouse administered at 25 mg/kg measured after 1 to 24 hrs by HPLC-MS/MS analysis; type: ADME, organism-based; settings: in vivo, time 1-24 hrs
# [29] = Elimination half life in CD-1 mouse at 10 mg/kg, iv measured after 1 to 24 hrs by HPLC-MS/MS analysis; type: ADME, organism-based; settings: in vivo, time 1-24 hrs, read-out: beta t1/2 (converted)
# [30] = Volume of distribution at steady state in CD-1 mouse at 10 mg/kg, iv measured after 1 to 24 hrs by HPLC-MS/MS analysis; type: ADME, organism-based; settings: in vivo, time 1-24 hrs, read-out: Vdss
# [31] = Clearance in CD-1 mouse at 10 mg/kg, iv measured after 1 to 24 hrs by HPLC-MS/MS analysis; type: ADME, organism-based; settings: in vivo, time 1-24 hrs
# in vitro [32] = settings: human, liver microsomes
# Description: Microsomal stability in human liver microsomes assessed as extraction ratio in presence of NADPH for 0 to 40 mins by LC-MS/MS analysis
# in vitro [33] = settings: mouse, liver microsomes
# Description: Microsomal stability in mouse liver microsomes assessed as extraction ratio in presence of NADPH for 0 to 40 mins by LC-MS/MS analysis
# T1 sequence (P08069 31-736 limits assumed): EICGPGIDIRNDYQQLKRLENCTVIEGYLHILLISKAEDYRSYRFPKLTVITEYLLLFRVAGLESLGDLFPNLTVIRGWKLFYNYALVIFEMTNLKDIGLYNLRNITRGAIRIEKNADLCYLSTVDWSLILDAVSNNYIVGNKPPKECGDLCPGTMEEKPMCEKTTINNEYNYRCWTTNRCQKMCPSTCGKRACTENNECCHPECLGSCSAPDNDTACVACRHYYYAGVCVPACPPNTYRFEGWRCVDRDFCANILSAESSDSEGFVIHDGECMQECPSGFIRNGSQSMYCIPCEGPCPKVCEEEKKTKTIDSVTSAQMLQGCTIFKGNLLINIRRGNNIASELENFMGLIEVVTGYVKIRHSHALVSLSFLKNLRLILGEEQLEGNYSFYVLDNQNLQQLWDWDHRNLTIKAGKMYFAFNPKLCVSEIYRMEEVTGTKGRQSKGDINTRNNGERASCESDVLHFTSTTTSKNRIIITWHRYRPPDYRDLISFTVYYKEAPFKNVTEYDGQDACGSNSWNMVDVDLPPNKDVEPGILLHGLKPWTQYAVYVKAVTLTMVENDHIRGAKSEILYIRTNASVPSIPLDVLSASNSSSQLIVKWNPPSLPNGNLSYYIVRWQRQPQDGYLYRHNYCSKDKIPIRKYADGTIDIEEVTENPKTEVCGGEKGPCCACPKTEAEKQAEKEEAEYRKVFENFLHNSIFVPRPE
# T1 sequence (P08069 741-1367 limits assumed): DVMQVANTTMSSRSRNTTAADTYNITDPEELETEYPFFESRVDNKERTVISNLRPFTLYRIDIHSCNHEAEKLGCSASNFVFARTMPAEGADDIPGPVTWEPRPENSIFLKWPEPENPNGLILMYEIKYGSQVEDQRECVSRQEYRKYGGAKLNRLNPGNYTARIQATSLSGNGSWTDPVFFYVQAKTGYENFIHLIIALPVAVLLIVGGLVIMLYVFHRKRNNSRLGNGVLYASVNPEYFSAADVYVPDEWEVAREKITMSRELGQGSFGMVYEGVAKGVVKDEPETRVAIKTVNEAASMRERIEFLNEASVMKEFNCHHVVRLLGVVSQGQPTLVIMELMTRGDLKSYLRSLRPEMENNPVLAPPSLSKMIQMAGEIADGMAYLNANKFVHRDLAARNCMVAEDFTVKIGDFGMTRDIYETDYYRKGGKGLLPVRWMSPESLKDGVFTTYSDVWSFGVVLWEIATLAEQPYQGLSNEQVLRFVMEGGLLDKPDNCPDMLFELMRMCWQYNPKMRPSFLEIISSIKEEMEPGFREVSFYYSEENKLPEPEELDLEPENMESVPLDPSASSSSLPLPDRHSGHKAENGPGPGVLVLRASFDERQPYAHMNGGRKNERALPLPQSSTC
# Sequence of Cytochrome P450 3A4 (P08684 whole entry): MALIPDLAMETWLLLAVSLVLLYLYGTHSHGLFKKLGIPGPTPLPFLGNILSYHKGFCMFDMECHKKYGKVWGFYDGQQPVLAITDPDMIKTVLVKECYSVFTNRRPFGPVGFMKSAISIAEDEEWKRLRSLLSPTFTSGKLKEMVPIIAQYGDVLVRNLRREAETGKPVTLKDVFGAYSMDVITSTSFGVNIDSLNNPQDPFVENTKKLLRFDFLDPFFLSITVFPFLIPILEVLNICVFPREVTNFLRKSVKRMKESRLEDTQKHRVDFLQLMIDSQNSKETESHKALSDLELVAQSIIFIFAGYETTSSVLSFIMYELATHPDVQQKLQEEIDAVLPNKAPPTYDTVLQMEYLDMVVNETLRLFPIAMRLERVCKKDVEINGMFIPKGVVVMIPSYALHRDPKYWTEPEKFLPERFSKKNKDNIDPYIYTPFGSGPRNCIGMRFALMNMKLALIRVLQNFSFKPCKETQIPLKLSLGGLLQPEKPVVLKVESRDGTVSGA
smiles,measurement,setting,value
Nc1nccn2c(C3CC(O)C3)nc(-c3ccc4ccc(-c5ccccc5)nc4c3)c12 (stereo not drawn),concentration at 1 h,[1],4590 ng/mL and 11.3 µM
same,concentration at 4 h,[2],3660 ng/mL and 8.99 µM
same,concentration at 8 h,[3],4650 ng/mL and 11.4 µM
same,concentration at 16 h,[4],2360 ng/mL and 5.8 µM
Nc1nccn2c1c(-c1ccc3ccc(-c4ccccc4)nc3c1)nc2[C@H]1CC[C@H](C(N)=O)CC1,IC50,[5],42 nM
same,Cmax,[6],11400 nM
same,AUC(0-inf),[7],52500 ng·h/mL
same,bioavailability,[8],77%
Nc1nccn2c(C3CCC3)nc(-c3ccc4ccc(-c5ccccc5)nc4c3)c12,Cmax,[6],2680 nM
same,AUC(0-inf),[7],5170 ng·h/mL
same,bioavailability,[8],56%
same,IC50,Cytochrome P450 3A4,3300 nM
same,half-life,[9],0.98 h
same,Vd,[10],6.25 L/kg
same,clearance,[11],90 mL/min/kg
same,half-life,[12],0.98 h
same,concentration at 1 h,[1],3200 ng/mL and 8.19 µM
same,concentration at 4 h,[2],1810 ng/mL and 4.62 µM
same,concentration at 8 h,[3],3110 ng/mL and 7.95 µM
same,concentration at 16 h,[4],1030 ng/mL and 2.64 µM
CN1CCN([C@H]2C[C@@H](c3nc(-c4ccc5ccc(-c6ccccc6)nc5c4)c4c(N)nccn43)C2)CC1,IC50,[5],19 nM
same,IC50,[13],24 nM
same,IC50,Cytochrome P450 3A4,8300 nM
same,hepatic extraction ratio,[14],0.21
same,hepatic extraction ratio,[15],0.5
same,concentration at 24 h,[16],1040 nM
same,Cmax,[17],1350 nM
same,concentration at 24 h,[18],740 nM
same,half-life,[19],28.7 h
same,AUC(0-inf),[20],28700 ng·h/mL
same,bioavailability,[21],100%
same,half-life,[22],20 h
same,Vd,[23],21 L/kg
same,clearance,[24],16 mL/min/kg
same,Cmax,[25],2200 nM
same,half-life,[26],23.6 h
same,AUC(0-inf),[27],34500 ng·h/mL
same,bioavailability,[28],100%
same,half-life,[29],5 h
same,Vd,[30],8 L/kg
same,clearance,[31],19 mL/min/kg
same,hepatic extraction ratio,in vitro [32],0.59
same,hepatic extraction ratio,in vitro [33],0.53
